Experimental findings from ChEMBL document CHEMBL5726506, “Heterocyclic kinase inhibitors” (2017) are described below.

A short description of this experiment: Inhibition Assay: Class I PI3-Ks can be either purchased (p110α/p85α, p110β/p85α, p110δ/p85α from Upstate, and p110γ from Sigma) or expressed as previously described (Knight et al., 2004). IC50 values are measured using either a standard TLC assay for lipid kinase activity (described below) or a high-throughput membrane capture assay. Kinase reactions are performed by preparing a reaction mixture containing kinase, inhibitor (2% DMSO final concentration), buffer (25 mM HEPES, pH 7.4, 10 mM MgCl2), and freshly sonicated phosphatidylinositol (100 μg/ml). Reactions are initiated by the addition of ATP containing 10 μCi of γ-32P-ATP to a final concentration 10 or 100 μM and allowed to proceed for 5 minutes at room temperature. For TLC analysis, reactions are then terminated by the addition of 105 l 1N HCl followed by 160 μl CHCl3:MeOH (1:1). The biphasic mixture is vortexed, briefly centrifuged, and the organic phase is transferred to a new tube using a gel loading pipette tip precoated with CHCl3. This extract is spotted on TLC plates and developed for 3-4 hours in a 65:35 solution of n-propanol:1M acetic acid. The TLC plates are then dried, exposed to a phosphorimager screen (Storm, Amersham), and quantitated. For each compound, kinase activity is measured at 10-12 inhibitor concentrations representing two-fold dilutions from the highest concentration tested (typically, 200 μM).

The structures appear in SMILES notation. Where only a bound is given, the exact number is not on record here.

By IC50 is commonly meant the midpoint of a concentration-inhibition curve. Take `CN1CCN(c2nc3ccccc3cc2Cn2nc(-c3cc(O)cc(F)c3)c3c(N)ncnc32)CC1`: the IC50 is above 1000 nM.

Turning to `Nc1nc2ccc(-c3nn(Cc4cc5ccccc5nc4-c4ccccc4C(F)(F)F)c4ncnc(N)c34)cc2[nH]1`, the IC50 was above 1000 nM.
